Test [1] has as its target 5-hydroxytryptamine receptor 2B (Mus musculus, UniProt Q02152).
For test [2], the target named is T1, 5-hydroxytryptamine receptor 3A (Mus musculus, UniProt P23979).
T1 sequence (P23979 whole entry): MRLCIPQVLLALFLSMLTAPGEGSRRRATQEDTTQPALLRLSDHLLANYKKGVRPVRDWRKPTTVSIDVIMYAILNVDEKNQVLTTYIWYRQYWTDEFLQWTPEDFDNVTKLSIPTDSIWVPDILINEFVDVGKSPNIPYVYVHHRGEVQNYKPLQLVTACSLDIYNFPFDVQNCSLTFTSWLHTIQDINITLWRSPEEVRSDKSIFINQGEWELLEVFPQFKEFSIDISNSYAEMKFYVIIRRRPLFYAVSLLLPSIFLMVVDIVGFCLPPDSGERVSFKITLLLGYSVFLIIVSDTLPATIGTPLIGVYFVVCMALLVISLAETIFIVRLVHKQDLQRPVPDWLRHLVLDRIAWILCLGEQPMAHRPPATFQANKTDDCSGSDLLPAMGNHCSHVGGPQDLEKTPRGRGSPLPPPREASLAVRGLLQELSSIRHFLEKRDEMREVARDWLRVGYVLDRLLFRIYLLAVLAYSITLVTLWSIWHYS

Test [3] deals with 5-hydroxytryptamine receptor 5B (Rattus norvegicus, UniProt P35365).
Test [4] addresses T2, 5-hydroxytryptamine receptor 1F (Rattus norvegicus, UniProt P30940).
T2 sequence (P30940 whole entry): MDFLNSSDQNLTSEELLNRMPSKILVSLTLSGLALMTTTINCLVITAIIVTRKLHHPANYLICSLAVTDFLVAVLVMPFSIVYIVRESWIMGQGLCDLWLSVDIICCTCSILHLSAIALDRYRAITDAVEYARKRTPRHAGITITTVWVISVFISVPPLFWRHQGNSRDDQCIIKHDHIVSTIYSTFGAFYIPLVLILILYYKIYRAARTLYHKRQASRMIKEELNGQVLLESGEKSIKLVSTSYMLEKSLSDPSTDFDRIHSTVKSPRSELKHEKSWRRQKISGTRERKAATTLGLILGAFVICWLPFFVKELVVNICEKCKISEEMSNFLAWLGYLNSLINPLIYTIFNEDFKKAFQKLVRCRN

The target in test [5] is 5-hydroxytryptamine receptor 1B (Rattus norvegicus, UniProt P28564).
Test [6] concerns the target 5-hydroxytryptamine receptor 1E (Homo sapiens, UniProt P28566).
Test [7] concerns the target 5-hydroxytryptamine receptor 5A (Mus musculus, UniProt P30966).
The target in test [8] is 5-hydroxytryptamine receptor 5A (Rattus norvegicus, UniProt P35364).
The target in test [9] is 5-hydroxytryptamine receptor 7 (Mus musculus, UniProt P32304).
Test [10] deals with T3, 5-hydroxytryptamine receptor 1F (Mus musculus, UniProt Q02284).
T3 sequence (Q02284 whole entry): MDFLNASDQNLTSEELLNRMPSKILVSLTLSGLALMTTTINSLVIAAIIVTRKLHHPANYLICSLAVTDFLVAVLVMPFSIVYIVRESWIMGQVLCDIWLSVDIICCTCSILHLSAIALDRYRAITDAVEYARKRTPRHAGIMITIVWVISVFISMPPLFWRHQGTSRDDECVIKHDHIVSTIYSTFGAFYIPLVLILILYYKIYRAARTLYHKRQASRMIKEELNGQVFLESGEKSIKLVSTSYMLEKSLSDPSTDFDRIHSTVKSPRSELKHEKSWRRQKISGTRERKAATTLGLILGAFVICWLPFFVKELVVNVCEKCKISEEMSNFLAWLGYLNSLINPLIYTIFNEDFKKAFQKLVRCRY

For test [11], the target named is 5-hydroxytryptamine receptor 1D (Rattus norvegicus, UniProt P28565).
Test [12] has as its target 5-hydroxytryptamine receptor 1D (Canis lupus familiaris, UniProt P11614).
Test [13] deals with 5-hydroxytryptamine receptor 2A (Rattus norvegicus, UniProt P14842).

Experimental findings from BindingDB's records for doi:10.1016/0028-3908(94)90059-0 (University of Alberta, 1994) are described below.

Values joined by “and” are separate entries in the source; they are usually repeats but may differ in a detail not shown here. Equal entries are not always repeated. Bounds are passed on as bounds.

Sequence of 5-hydroxytryptamine receptor 1B (P28564 whole entry): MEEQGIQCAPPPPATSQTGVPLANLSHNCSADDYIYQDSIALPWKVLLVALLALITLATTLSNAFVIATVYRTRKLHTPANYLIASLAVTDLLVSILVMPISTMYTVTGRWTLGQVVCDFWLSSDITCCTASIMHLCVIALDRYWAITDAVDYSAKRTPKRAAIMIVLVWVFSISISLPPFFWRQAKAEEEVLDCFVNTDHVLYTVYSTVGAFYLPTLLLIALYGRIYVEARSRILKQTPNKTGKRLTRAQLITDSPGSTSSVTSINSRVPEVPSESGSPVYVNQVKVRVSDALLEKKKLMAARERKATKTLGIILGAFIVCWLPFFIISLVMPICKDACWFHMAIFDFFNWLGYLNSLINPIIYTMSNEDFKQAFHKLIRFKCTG
Sequence of 5-hydroxytryptamine receptor 1E (P28566 whole entry): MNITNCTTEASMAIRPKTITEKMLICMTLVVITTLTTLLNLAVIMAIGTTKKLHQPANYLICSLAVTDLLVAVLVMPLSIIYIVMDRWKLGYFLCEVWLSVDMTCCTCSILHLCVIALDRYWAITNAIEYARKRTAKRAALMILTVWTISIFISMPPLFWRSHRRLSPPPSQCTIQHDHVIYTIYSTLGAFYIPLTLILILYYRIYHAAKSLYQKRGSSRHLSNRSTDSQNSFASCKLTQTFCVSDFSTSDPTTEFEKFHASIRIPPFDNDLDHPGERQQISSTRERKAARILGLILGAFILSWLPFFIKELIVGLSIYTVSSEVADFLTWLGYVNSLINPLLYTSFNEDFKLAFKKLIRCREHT
Sequence of 5-hydroxytryptamine receptor 5B (P35365 whole entry): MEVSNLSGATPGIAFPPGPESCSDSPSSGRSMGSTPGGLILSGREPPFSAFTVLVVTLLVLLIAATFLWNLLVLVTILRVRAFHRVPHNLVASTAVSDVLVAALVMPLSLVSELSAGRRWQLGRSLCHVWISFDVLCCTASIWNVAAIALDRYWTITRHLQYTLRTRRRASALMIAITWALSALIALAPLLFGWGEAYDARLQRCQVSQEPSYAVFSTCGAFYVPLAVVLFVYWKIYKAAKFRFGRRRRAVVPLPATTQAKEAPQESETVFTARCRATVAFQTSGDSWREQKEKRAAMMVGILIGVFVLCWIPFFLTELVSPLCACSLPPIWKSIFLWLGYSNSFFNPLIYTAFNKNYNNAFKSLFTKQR
Sequence of 5-hydroxytryptamine receptor 5A (Mus musculus, UniProt P30966) (P30966 whole entry): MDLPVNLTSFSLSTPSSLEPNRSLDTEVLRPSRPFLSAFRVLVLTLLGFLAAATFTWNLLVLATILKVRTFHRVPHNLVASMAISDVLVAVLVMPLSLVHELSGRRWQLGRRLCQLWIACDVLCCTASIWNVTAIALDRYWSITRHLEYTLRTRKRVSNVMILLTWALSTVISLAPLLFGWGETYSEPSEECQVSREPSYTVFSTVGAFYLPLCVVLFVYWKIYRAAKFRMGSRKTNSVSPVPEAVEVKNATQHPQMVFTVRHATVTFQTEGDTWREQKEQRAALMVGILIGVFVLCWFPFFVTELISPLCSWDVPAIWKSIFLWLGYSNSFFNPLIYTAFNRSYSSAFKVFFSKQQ
Sequence of 5-hydroxytryptamine receptor 7 (P32304 whole entry): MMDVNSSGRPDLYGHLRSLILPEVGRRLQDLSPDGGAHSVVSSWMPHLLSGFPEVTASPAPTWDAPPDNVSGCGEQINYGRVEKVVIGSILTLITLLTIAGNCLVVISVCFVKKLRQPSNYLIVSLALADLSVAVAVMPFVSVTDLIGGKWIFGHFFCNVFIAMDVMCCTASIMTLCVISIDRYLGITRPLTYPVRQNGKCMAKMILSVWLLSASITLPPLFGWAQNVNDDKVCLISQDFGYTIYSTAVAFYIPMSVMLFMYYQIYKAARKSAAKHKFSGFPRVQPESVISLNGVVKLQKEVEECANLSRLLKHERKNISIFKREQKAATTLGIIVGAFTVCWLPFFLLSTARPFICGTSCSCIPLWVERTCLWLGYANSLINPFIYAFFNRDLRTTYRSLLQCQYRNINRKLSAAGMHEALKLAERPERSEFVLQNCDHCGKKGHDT
Sequence of 5-hydroxytryptamine receptor 1D (Canis lupus familiaris, UniProt P11614) (P11614 whole entry): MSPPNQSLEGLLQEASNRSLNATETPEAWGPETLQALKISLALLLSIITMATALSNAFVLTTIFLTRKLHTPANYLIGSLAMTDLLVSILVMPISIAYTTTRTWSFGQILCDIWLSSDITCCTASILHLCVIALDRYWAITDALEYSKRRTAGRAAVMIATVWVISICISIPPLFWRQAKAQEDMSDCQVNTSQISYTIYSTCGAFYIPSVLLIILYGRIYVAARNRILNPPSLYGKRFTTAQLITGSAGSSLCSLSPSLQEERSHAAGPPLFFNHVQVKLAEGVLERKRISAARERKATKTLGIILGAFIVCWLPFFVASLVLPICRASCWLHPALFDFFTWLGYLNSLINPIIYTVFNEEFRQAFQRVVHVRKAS
Sequence of 5-hydroxytryptamine receptor 1D (Rattus norvegicus, UniProt P28565) (P28565 whole entry): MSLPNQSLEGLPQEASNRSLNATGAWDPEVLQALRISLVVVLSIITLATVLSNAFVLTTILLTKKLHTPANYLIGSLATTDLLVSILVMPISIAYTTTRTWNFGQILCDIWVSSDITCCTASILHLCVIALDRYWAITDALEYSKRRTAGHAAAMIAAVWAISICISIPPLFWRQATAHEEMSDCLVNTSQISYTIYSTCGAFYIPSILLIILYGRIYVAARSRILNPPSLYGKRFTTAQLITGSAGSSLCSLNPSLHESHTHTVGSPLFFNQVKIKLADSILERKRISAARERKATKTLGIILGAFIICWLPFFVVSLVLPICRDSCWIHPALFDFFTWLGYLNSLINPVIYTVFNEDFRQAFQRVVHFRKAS
Sequence of 5-hydroxytryptamine receptor 5A (Rattus norvegicus, UniProt P35364) (P35364 whole entry): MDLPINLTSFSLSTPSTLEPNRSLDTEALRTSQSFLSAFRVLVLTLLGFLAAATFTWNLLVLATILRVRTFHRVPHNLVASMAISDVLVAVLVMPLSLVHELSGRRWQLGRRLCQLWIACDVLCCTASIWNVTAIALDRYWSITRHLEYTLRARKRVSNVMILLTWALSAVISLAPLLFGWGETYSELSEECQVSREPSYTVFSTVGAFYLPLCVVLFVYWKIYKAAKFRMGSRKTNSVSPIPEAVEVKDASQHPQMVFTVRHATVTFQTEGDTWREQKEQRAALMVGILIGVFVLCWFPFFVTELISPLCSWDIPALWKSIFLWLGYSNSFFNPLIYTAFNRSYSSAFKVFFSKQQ
Sequence of 5-hydroxytryptamine receptor 2A (P14842 whole entry): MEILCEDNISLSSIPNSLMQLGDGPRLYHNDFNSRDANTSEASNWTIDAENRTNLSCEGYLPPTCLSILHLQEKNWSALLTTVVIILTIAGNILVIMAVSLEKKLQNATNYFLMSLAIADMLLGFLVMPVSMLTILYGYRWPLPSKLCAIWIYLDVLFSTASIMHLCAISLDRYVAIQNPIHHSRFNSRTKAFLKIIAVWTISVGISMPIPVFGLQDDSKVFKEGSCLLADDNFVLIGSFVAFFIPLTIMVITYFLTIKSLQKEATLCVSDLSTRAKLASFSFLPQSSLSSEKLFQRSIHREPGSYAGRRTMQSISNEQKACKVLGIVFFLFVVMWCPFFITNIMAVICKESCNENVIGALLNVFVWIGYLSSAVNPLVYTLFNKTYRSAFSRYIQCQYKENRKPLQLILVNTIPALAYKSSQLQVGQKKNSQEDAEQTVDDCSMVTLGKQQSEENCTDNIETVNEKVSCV
Sequence of 5-hydroxytryptamine receptor 2B (Q02152 whole entry): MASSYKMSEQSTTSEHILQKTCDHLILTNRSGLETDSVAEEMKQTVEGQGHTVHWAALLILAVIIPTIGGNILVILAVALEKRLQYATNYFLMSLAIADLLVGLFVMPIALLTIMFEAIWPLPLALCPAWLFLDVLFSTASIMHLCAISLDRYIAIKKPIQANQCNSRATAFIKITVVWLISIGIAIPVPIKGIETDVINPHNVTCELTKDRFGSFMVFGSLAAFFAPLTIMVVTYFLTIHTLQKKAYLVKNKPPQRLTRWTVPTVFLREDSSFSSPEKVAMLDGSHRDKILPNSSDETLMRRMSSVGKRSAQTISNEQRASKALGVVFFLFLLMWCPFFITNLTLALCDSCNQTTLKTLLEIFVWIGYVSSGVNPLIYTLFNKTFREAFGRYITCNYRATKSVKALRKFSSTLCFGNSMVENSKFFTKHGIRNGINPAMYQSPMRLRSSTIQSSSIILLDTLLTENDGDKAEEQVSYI

In general, Ki refers to the dissociation constant of the complex between target and ligand, obtained from inhibition or displacement. High values mean a looser hold on the target, low ones a stronger hold on the target. With `CC[C@@H](CO)NC(=O)[C@@H]1C=C2c3cccc4c3c(cn4C)C[C@H]2N(C)C1`, the Ki in test [1] was 12.6 nM; in [2], over 10000 nM; in test [3], 1000 nM; in test [4] it was 13.5 nM; in [5], 1820 nM and 437 nM; in test [6], 324 nM and 219 nM. The inhibition constant (Ki) in test [7] stood at 79.4 nM; in test [8] it was 195 nM; in test [9] it was 12.6 nM; in [10] it was 6.3 nM.
With `CN1C[C@H](C(=O)N[C@]2(C)O[C@@]3(O)[C@@H]4CCCN4C(=O)[C@H](Cc4ccccc4)N3C2=O)C=C2c3cccc4[nH]cc(c34)C[C@H]21` [12'-hydroxy-2'-methyl-5'alpha-(phenylmethyl)ergotaman-3',6',18-trione], the Ki in test [3] was 15.8 nM; in test [4] it was 52.5 nM; in [5], 0.03 nM; in [6], 575 nM and 537 nM; in [7] it was 6.3 nM; in test [9] it was 50.1 nM. Also, the inhibitory constant (Ki) in test [10] turned out to be 50.1 nM; in test [11] it was 0.07 nM; in test [12] it was 1.94 nM.
In test [13], `CN(C)CCCSc1ccccc1NC(=O)/C=C/c1ccccc1` [CINANSERIN] yielded a Ki of 6.02 nM.
